Like-named read-outs stand apart in the source and are kept apart here. Starred links: 1 amine or outer side, 2 acyl side, 3 side chain; linkers in the order of their positions; H or OH if unused. Positions of bridges follow the written chain, without caps; N, C: chain ends. Non-standard residues stand in square brackets, D forms with d. Residues, ends and D or L forms follow the SMILES beside them. Chains are numbered I, II in the order given. *: point of attachment. NOTA(2S-Bn(4-NHCS)) = O=C(O)CN1CCN(CC(=O)O)C[C@H](Cc2ccc(NC(=S)*)cc2)N(CC(=O)O)CC1; X1 = O=C([C@H](CCCCn1nnc2c1-c1ccccc1CN([*:3])c1ccccc1-2)N[*:1])[*:2]; X2 = O=C(CCOCCOCCOCCOCCNC(=O)CCN1C(=O)CC([*:1])C1=O)NCCC(=O)[*:2]; γ4hIle = CC[C@H](C)[C@@H](CCC(=O)[*:2])N[*:1]; Tle = CC(C)(C)[C@H](N)C(=O)O; Ava = NCCCCC(=O)O; Sar = CNCC(=O)O

For one series, the target named is T1, GRPR (Homo sapiens, UniProt P30550).
T1 construct: Both cell lines express GRPR; endogenous in cells; host or cells: PC-3 cells (dimeric TM also tested in LNCaP cells)
As to the kind of experiment: Competitive binding assay against 125I-Tyr4-bombesin in PC3 cells. As to the method: Then, ^125I-Tyr^4-BBN (0.05 nM final concentration) was added to each well, and the plates were incubated for 2 h at 4 °C. The cells were then rinsed twice with ice-cold phosphate-buffered saline (PBS) and harvested. The cells were placed on a Packard II gamma counter (PerkinElmer, Boston, MA, USA) to determine the cell-associated radioactivity. After decay correction, data were plotted using GraphPad Prism 9 Software (San Diego, CA, USA) using the sigmoidal dose–response equation, with counts per minute (cpm) of radioactivity bound versus the log of the concentration of NOTA-E5B9-BBN2 monomeric or dimeric TM for the determination of IC50 values. NOTA-E5B9-BBN2 dimeric TM was also tested in LNCaP cells. Gastrin-releasing peptide (GRP) served as the control.

A short description of series [1]: Dynamic PET imaging, tumor uptake in PC3 xenografts. The series is classed as in vivo, mouse. Particulars: male, BALB/c Nude, mouse, in vivo, iv, total radioactivity. As to the method: (§1) For PET experiments and as prostate cancer xenograft models, male PC3 and LNCaP tumor-bearing BALB/c Nude mice were used (body weight: 22−24 g, Charles River Laboratories, Saint-Constant, QC, Canada). To generate the tumor xenografts, about 5−6 × 10^6 PC3 cells in 100 μL of PBS or 20−25 × 10^6 LNCaP cells in 200 μL of PBS/Matrigel (50/50) were subcutaneously injected into the left shoulder of male BALB/c Nude mice. For the androgen-dependent LNCaP model, a 1.5 mg pellet containing dehydroepiandrosterone DHEA (60-day release; Innovative Research of America, Sarasota, FL, U.S.A.) was implanted subcutaneously into the upper right flank shortly before LNCaP cell injection. PC3 tumors and LNCaP tumors reached sizes of ∼300−500 mm^3 after 3−5 weeks and 6−8 weeks, respectively, and were used for the in vivo experiments. PET imaging of E5B9-^68Ga-NOTA-BBN2 monomeric and dimeric TMs was performed on an INVEON® PET/CT scanner (Siemens Preclinical Solutions, Knoxville, TN, USA). Prior to radiotracer injection, mice were anesthetized through inhalation of isoflurane in 40% oxygen/60% nitrogen (gas flow 1 L/min), and body temperature was kept constant at 37 °C. The mice were placed in a prone position in the center of the field of view. A transmission scan for attenuation correction was not acquired. Mice were injected with 4−8 MBq of E5B9-^68Ga-NOTA-BBN2 or E5B9-^68Ga-NOTA-(BBN2)2 in 150 μL 10% EtOH/saline solution through a tail vein catheter. For blocking studies, PC3- and LNCaP-tumor-bearing […] mice were pre-dosed i.v. with 300 μg of Ava-BBN2 (15 min prior to radiotracer injection) in 50 uL saline. Data acquisition was performed over 60 min in 3D list mode. The dynamic list mode data were sorted into sinograms with 54 time frames (10 × 2, 8 × 5, 6 × 10, 6 × 20, 8 × 60, 10 × 120, 6 × 300 s). The frames were reconstructed using maximum a posteriori (MAP) as the reconstruction mode. No correction for partial volume effects was applied. The image files were processed using the ROVER v2.0.51 software (ABX GmbH, Radeberg, Germany). […] ROIs covered all visible tumor mass of the subcutaneous tumors, and the thresholds were defined by 50% of the maximum radioactivity uptake level. Mean standardized uptake values [SUVmean = (activity/mL tissue)/(injected activity/body weight), […]] were calculated for each ROI, and time−activity curves (TACs) were generated. For each experimental group (different radiotracers and mouse tumor models as well as control and blocking experiments), n = 3–6 mice were measured. […] Blocking experiments were conducted in the same mice: first, a control scan was measured and then repeated 1–2 days after in the presence of a blocking concentration of 300 μg of Ava-BBN2. All semi-quantified PET data are presented as means ± SEM. […]

A short description of series [2]: Dynamic PET imaging, tumor uptake in LNCaP xenografts. The class given is in vivo, mouse. Particulars: male, BALB/c Nude, mouse, in vivo, iv, total radioactivity. As to the method:
as §1

Another series relates to PC3 tumors. As to the kind of experiment: Dynamic PET imaging, tumor uptake in PC3 xenografts. The class given is in vivo, mouse. Particulars: PC3 tumors, pre-dosing i.v. with 300 µg Ava-BBN2 15 min before radiotracer, n = 3, p < 0.05. As to the method: as §1
The next series relates to PC3 cancer cells. The series is classed as cell-based, human. Particulars: 48 h. As to the method: (§2) Standard chromium (^51Cr)-release cytotoxicity assays were performed to assess the killing of tumor cells by redirected UniCAR T-cells as previously described. Briefly, chromium-labeled target cells were incubated for 48 h with UniCAR T-cells at an effector-to-target cell (E:T) ratio of 5:1 in the absence or presence of different TM concentrations. The radioactive signal in the supernatants was measured using a MicroBeta Microplate Counter (PerkinElmer, Rodgau, Germany).

The next series deals with LNCaP cancer cells. The series is classed as cell-based, human. Particulars: 48 h. As to the method:
as §2

The mark [3] stands for this setting: competition against 125I-Tyr4-bombesin (0.05 nM) in PC3 cells, 2 h at 4 °C, triplicates, gamma counter, mean ± SEM, read-out: IC50 (competition binding to GRPR).

T1 sequence (P30550 whole entry): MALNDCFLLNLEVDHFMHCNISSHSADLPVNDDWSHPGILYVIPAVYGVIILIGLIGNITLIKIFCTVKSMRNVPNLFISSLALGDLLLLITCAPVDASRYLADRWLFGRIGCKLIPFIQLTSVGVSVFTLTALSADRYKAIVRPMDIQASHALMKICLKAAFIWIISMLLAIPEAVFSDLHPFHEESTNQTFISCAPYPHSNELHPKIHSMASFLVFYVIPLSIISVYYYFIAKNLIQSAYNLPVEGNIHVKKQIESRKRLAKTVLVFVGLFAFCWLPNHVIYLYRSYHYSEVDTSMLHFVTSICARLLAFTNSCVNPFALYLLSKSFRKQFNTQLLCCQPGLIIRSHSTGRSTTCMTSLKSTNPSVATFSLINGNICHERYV

As for `CSCC[C@H](NC(=O)[C@H](CC(C)C)NC(=O)[C@H](Cc1c[nH]cn1)NC(=O)CNC(=O)[C@@H](NC(=O)[C@H](C)NC(=O)[C@H](Cc1c[nH]c2ccccc12)NC(=O)[C@H](Cc1c[nH]cn1)NC(=O)[C@H](CC(N)=O)NC(=O)CNC(=O)[C@H](CCCN=C(N)N)NC(=O)[C@@H]1CCCN1C(=O)[C@H](Cc1ccc(O)cc1)NC(=O)[C@H](CCSC)NC(=O)[C@H](CCCCN)NC(=O)[C@@H](NC(=O)[C@H](CC(C)C)NC(=O)[C@@H](NC(=O)[C@@H](NC(=O)CNC(=O)CNC(=O)CNC(=O)[C@H](C)NC(=O)[C@@H]1CCCN1C(=O)[C@H](CC(C)C)NC(=O)[C@@H]1CCCN1C(=O)[C@@H](N)C(C)C)[C@@H](C)O)C(C)C)[C@@H](C)O)C(C)C)C(N)=O` [GRP, gastrin-releasing peptide, reference compound], the IC50 (in general, the concentration that gives 50% inhibition) at GRPR was determined as 0.15 ± 0.05 nM.

Consider `CC[C@H](C)[C@@H](CCC(=O)N[C@H](C(N)=O)C(C)(C)C)NC(=O)[C@H](Cc1c[nH]cn1)NC(=O)CN(C)C(=O)[C@@H](NC(=O)[C@H](C)NC(=O)[C@H](Cc1c[nH]c2ccccc12)NC(=O)[C@H](CCC(N)=O)NC(=O)CCCCNC(=O)CC[C@H](NC(=O)[C@H](CCCCn1nnc2c1-c1ccccc1CN(C(=O)CCNC(=O)CCOCCOCCOCCOCCNC(=O)CCN1C(=O)CC(SC[C@H](NC(=O)[C@H](Cc3ccc(O)cc3)NC(=O)[C@H](CCC(=O)O)NC(=O)[C@H](CC(=O)O)NC(=O)[C@@H](NC(=O)[C@@H](NC(=O)[C@H](CCC(=O)O)NC(=O)[C@@H]3CCCN3C(=O)[C@H](CC(C)C)NC(=O)[C@@H]3CCCN3C(=O)[C@H](CCCCN)NC(=O)[C@@H](N)CO)C(C)C)[C@@H](C)O)C(=O)O)C1=O)c1ccccc1-2)NC(=O)CCCCNC(=S)Nc1ccc(C[C@H]2CN(CC(=O)O)CCN(CC(=O)O)CCN2CC(=O)O)cc1)C(=O)NCCCCC(=O)N[C@@H](CCC(N)=O)C(=O)N[C@@H](Cc1c[nH]c2ccccc12)C(=O)N[C@@H](C)C(=O)N[C@H](C(=O)N(C)CC(=O)N[C@@H](Cc1c[nH]cn1)C(=O)N[C@H](CCC(=O)N[C@H](C(N)=O)C(C)(C)C)[C@@H](C)CC)C(C)C)C(C)C` (stereo partly shown) [E5B9-NOTA-(BBN2)2 TM], for which the IC50 at GRPR (setting [3]) is 0.7 ± 0.1 nM.

Turning to `CC[C@H](C)[C@@H](CCC(=O)N[C@H](C(N)=O)C(C)(C)C)NC(=O)[C@H](Cc1c[nH]cn1)NC(=O)CN(C)C(=O)[C@@H](NC(=O)[C@H](C)NC(=O)[C@H](Cc1c[nH]c2ccccc12)NC(=O)[C@H](CCC(N)=O)NC(=O)CCCCNC(=S)Nc1ccc(C[C@H]2CN(CC(=O)O)CCN(CC(=O)O)CCN2CC(=O)O)cc1)C(C)C` [^68Ga-NOTA-BBN2, metal not drawn, reference compound] ({NOTA(2S-Bn(4-NHCS))-Ava}-QWAV[Sar]H[γ4hIle][Tle]-NH2; N-terminus and C-terminus assumed), the values for the SUV at 1 h in series [1] and in series [2] were 0.46 ± 0.05 SUV and 0.38 ± 0.02 SUV, respectively.

With `CC[C@H](C)[C@@H](CCC(=O)N[C@H](C(N)=O)C(C)(C)C)NC(=O)[C@H](Cc1c[nH]cn1)NC(=O)CN(C)C(=O)[C@@H](NC(=O)[C@H](C)NC(=O)[C@H](Cc1c[nH]c2ccccc12)NC(=O)[C@H](CCC(N)=O)NC(=O)[C@H](CCCCn1nnc2c1-c1ccccc1CN(C(=O)CCNC(=O)CCOCCOCCOCCOCCNC(=O)CCN1C(=O)CC(SC[C@H](NC(=O)[C@H](Cc3ccc(O)cc3)NC(=O)[C@H](CCC(=O)O)NC(=O)[C@H](CC(=O)O)NC(=O)[C@@H](NC(=O)[C@@H](NC(=O)[C@H](CCC(=O)O)NC(=O)[C@@H]3CCCN3C(=O)[C@H](CC(C)C)NC(=O)[C@@H]3CCCN3C(=O)[C@H](CCCCN)NC(=O)[C@@H](N)CO)C(C)C)[C@@H](C)O)C(=O)O)C1=O)c1ccccc1-2)NC(=O)CCCCNC(=S)Nc1ccc(C[C@H]2CN(CC(=O)O)CCN(CC(=O)O)CCN2CC(=O)O)cc1)C(C)C` (stereo partly drawn) [monomeric ^68Ga-BBN2 TM, metal not drawn] (I: H-SKPLPEVTDEYC-OH / II: {NOTA(2S-Bn(4-NHCS))-Ava}-[X1]QWAV[Sar]H[γ4hIle][Tle]-NH2; linker I:12-II:1 via X2), the values for the SUV at 1 h in series [1] and in series [2] were 0.44 ± 0.01 SUV and 0.44 ± 0.11 SUV, respectively. The “in vivo blocking of tumor uptake” value in the series on PC3 tumors is 39 ± 9%.

Take `CC[C@H](C)[C@@H](CCC(=O)N[C@H](C(N)=O)C(C)(C)C)NC(=O)[C@H](Cc1c[nH]cn1)NC(=O)CN(C)C(=O)[C@@H](NC(=O)[C@H](C)NC(=O)[C@H](Cc1c[nH]c2ccccc12)NC(=O)[C@H](CCC(N)=O)NC(=O)[C@H](CCCCn1nnc2c1-c1ccccc1CN(C(=O)CCNC(=O)CCOCCOCCOCCOCCNC(=O)CCN1C(=O)CC(SC[C@H](NC(=O)[C@H](Cc3ccc(O)cc3)NC(=O)[C@H](CCC(=O)O)NC(=O)[C@H](CC(=O)O)NC(=O)[C@@H](NC(=O)[C@@H](NC(=O)[C@H](CCC(=O)O)NC(=O)[C@@H]3CCCN3C(=O)[C@H](CC(C)C)NC(=O)[C@@H]3CCCN3C(=O)[C@H](CCCCN)NC(=O)[C@@H](N)CO)C(C)C)[C@@H](C)O)C(=O)O)C1=O)c1ccccc1-2)NC(=O)CCCCNC(=S)Nc1ccc(C[C@H]2CN(CC(=O)O)CCN(CC(=O)O)CCN2CC(=O)O)cc1)C(C)C` (stereo partly drawn) [E5B9-NOTA-BBN2 TM] (I: H-SKPLPEVTDEYC-OH / II: {NOTA(2S-Bn(4-NHCS))-Ava}-[X1]QWAV[Sar]H[γ4hIle][Tle]-NH2; linker I:12-II:1 via X2): the EC50 (commonly the midpoint of the concentration-response curve) stood at 32 nM with PC3 cancer cells and 29.8 nM with LNCaP cancer cells. Besides, the IC50 on GRPR (setting [3]) came out at 190 ± 0.04 nM.

The values above are taken from publication PMC11941939, “Tackling Prostate Cancer with Theranostic E5B9-Bombesin Target Modules (TMs): From Imaging to Treatment with UniCAR T-Cells” (International Journal of Molecular Sciences, 2025).
